Results on six compounds are retold here after PMC9862751, “Identifying Dopamine D3 Receptor Ligands through Virtual Screening and Exploring the Binding Modes of Hit Compounds” (Molecules, 2023).

The assay addresses human D3R (Homo sapiens, UniProt P35462). The assay is described as follows: [3H]-spiperone filtration binding assay on membranes from CHO–hDRD3 cells. The following applies: for inhibition at 10 µM: read-out: Inhibition Rate at 10 µM.

Chain of human D3R (P35462 whole entry): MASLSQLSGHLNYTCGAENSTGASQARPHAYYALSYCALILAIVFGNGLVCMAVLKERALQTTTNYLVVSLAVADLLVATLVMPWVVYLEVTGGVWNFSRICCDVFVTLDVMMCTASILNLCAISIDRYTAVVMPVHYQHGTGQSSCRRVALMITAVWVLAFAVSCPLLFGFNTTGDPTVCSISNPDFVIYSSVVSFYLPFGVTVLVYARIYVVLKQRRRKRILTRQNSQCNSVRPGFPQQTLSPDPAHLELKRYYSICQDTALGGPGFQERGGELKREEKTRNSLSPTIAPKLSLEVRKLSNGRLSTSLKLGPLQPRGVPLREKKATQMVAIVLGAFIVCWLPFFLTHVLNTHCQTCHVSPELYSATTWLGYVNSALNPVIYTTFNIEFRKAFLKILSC
Method: CHO-K1 cells expressing human D3R (CHO–hDRD3; HD Euroscreen Fast, Brussels, Belgium) were homogenized in 4× v/w buffer (15 mM Tris, 2 mM MgCl2, 0.3 mM EDTA, 1 mM EGTA, pH = 7.4 at 25 °C) with a Dounce tissue grinder and centrifuged at 40,000× g at 4 °C for 25 min. The supernatant was removed, and the pellet was resuspended in 4× v/w buffer and recentrifuged. […] The preparations were then aliquoted and stored at −70 °C [11].
The aliquoted membranes were thawed and washed once in binding buffer (50 mM Tris HCl, 5 mM MgCl2, 5 mM KCl, 1 mM CaCl2, 120 mM NaCl, and 1mM EDTA). […] The incubations were carried out for 120 min at 25 °C in 250 µL in individual wells of a 96-well deep-well plate. […] Non-specific binding was determined in the presence of 10 mM haloperidol. After incubation, the samples were filtered over UniFilter GF/B^TM using PerkinElmer Harvester and washed with 4 × 1 mL ice-cold binding buffer. The plate was dried at 40 °C for 1 h and 40 µL MicroScint scintillation cocktail (PerkinElmer) was added to each well. […] Specific radioligand binding was defined as the difference between total binding and non-specific binding determined in the presence of excess haloperidol. Inhibition percentage (%) = (total binding counts − test compounds binding counts)/(total binding counts—non-specific binding counts) [11].

For `Cc1cc(N2CCC(C(=O)N[C@@H]3CCCc4ccccc43)CC2)n2nc(-c3ccccc3)cc2n1` [Compound L227-1012], the half-inhibitory concentration (IC50) came to 1490 nM and the inhibition at 10 µM stood at 94.8%.

As for `Cc1ccc(-c2c3c(=O)n(C)c(=O)n(C)c3c3n2C(C)(C)CO[C@H]3c2ccc(C)cc2O)cc1` [Compound D280-0447], the 50% inhibitory concentration (IC50) was found to be 1250 nM and the inhibition at 10 µM is 99.3%.

For the compound `Cc1nc(Nc2ccc(NC(=O)Nc3ccc4c(c3)OCCO4)cc2)cc(NC2CCCCC2)n1` [Compound D638-0102], the half-inhibitory concentration (IC50) turned out to be 1480 nM and the inhibition at 10 µM turned out to be 93.6%.

Consider `Cc1ccc(SCc2nc(-c3ccc(C(=O)Nc4ccc5c(c4)OCO5)cc3)oc2C)cc1` [Compound E776-0059], for which the IC50 is 970 nM and the inhibition at 10 µM is 96.9%.

Consider `Cc1ccc(CNC(=O)c2ccc3c(=O)n(-c4ccc(C)cc4)c(N4CCCC4)nc3c2)cc1` [Compound F072-0905], for which the IC50 was 1410 nM and the inhibition at 10 µM was 99.5%.

On to `Cc1oc(-c2ccc(C(=O)NCc3ccccc3)cc2)nc1CN1CCc2ccccc21` [Compound G373-0280], for which, under “10 µM test compound, displacement of [3H]-spiperone”, the “Inhibition Rate at 10 µM” value stood at 74.8%.
